# From US20190002429A1, “Derivatives of Xanthone Compounds” (Agency for Science, Technology and Research, priority 2011, published 2019)
# Where two headings read alike, the source gives them in different places.
# Columns and labels:
# MRSA = assay: MIC99 against MRSA (Table 2-1); assay type: cell-based, Staphylococcus aureus
# S. aureus = assay: MIC99 against S. aureus (Table 2-1); assay type: cell-based, Staphylococcus aureus
# red blood cell [1] = assay: Hemolytic activity / in vitro toxicity (HC50); conditions: for HC50: Table 2-1, in vitro toxicity; for Hemolytic concentration, HC50: Table 10
# [2] = tested on: Pseudomonas aeruginosa ATCC27853; assay: MIC against Pseudomonas aeruginosa ATCC27853; assay type: cell-based
# red blood cell [3] = tested on: red blood cell
# S. aureus DM4001 = assay: SYTOX green membrane permeabilization assay, S. aureus; conditions: 10 μM; for SYTOX green staining of bacteria (fluorescence microscopy): FIG. 14; for Membrane permeabilization (SYTOX green fluorescence emission): fluorescence spectroscopy
# Procedure: S. aureus DM4001 was harvested at early exponential phase and suspended in 40 mM PBS until OD620 of 0.09 was obtained. Then, the bacteria suspension was incubated with 3 μM of SYTOX Green in dark. The mixture was monitored in a stirring cuvette at an excitation wavelength of 504 nm and at an emission wavelength of 523 nm until the fluorescence was stable. Then, 10 μM of AM compounds were added and the changed of fluorescence emissions were monitored.
# [4] = tested on: Clinical Staphylococcus aureus DM4001; assay: Cytoplasmic membrane depolarization (DiSC3 dye); assay type: cell-based; conditions: DiSC3 fluorescence; AM-016 at 12.5 ug/mL
# Procedure: Membrane potential-sensitive dye 3,3′-dipropylthiadicarbocyanine iodide (DiSC3) was used to determine the cytoplasmic membrane depolarization activity of AM-016. An overnight culture of clinical Staphylococcus aureus DM4001(source: Eye) was allowed to grow in Muller-Hinton broth (MHB) to OD620=0.3-0.4. Then, the bacteria was collected by centrifugation at 2800 r.p.m at 37° C. for 30 minutes and washed with 5 mM HEPES buffer at pH7. […] The cell suspension was then incubated with 0.1M KCl and 0.4 μM DiSC3 at 37° C. for 30 minutes. Dye uptake was monitored by fluorospectrometry (Photon Technology International (PTI) Photomultiplier Detection Systems, model 814) in a stirred cuvette until the fluorescence signal was stable. The desired concentration of AM-016 was added and the fluorescence was monitored at an excitation wavelength of 622 nm and at an emission wavelength of 670 nm. A blank with dye in the absence of bacteria with same concentration of AM-016 was used as a control.
# Gram-positive bacteria = assay: Antimicrobial activity against Gram-positive bacteria (statement); assay type: cell-based; conditions: at 50 ug/ml
# MRSA DM21455 [5] = assay: MIC against MRSA DM21455; assay type: cell-based, Staphylococcus aureus; conditions: for Minimum inhibition concentration (MIC): MRSA DM21455, Source: Eye; for MIC: Staphylococcus aureus
# MRSA DM09808R = assay: MIC against MRSA DM09808R; assay type: cell-based, Staphylococcus aureus; conditions: for MIC: Staphylococcus aureus
# [6] = tested on: Staphylococcus aureus ATCC29213; assay: MIC against S. aureus ATCC29213; assay type: cell-based; conditions: for MIC: Table 5
# [7] = tested on: Mycobacterium tuberculosis
# [8] = tested on: Clinical Staphylococcus aureus DM4001; assay: MIC against clinical S. aureus DM4001; assay type: cell-based; design: MIC: unit not given here; conditions: Clinical S. aureus DM4001, Source: Eye; for MIC: Table 5
# [9] = tested on: Bacillus cereus ATCC11778; assay: MIC against Bacillus cereus ATCC11778; assay type: cell-based; conditions: for MIC: Table 5
# MRSA DR42412 = assay: MIC against MRSA DR42412; assay type: cell-based, Staphylococcus aureus; conditions: Staphylococcus aureus
# [10] = tested on: Staphylococcus aureus ATCC 700699 (VISA); assay: MIC against S. aureus ATCC 700699 (MRSA-700699, VISA); assay type: cell-based; conditions: for MIC: Staphylococcus aureus
# MRSA DM21595 = assay: MIC against MRSA DM21595; assay type: cell-based, Staphylococcus aureus; conditions: Staphylococcus aureus
# [11] = tested on: Enterococcus faecalis ATCC 51299 VRE; assay: MIC against Enterococcus faecalis ATCC 51299 VRE; assay type: cell-based; conditions: E. faecalis ATCC 51299 VRE; no unit in table (Example 10 MICs in μg/ml)
# MRSA DM21455 [12] = assay: Drug resistance test, 20 serial passages; assay type: cell-based, Staphylococcus aureus; conditions: MRSA DM21455, FIG. 7
# [13] = tested on: Staphylococcus aureus 10: DB6506 (MRSA04/10) (VISA); assay: MIC against S. aureus DB6506 (VISA); assay type: cell-based; conditions: no unit in table (Example 10 MICs in μg/ml)
# [14] = tested on: Enterococcus faecalis 11: DU9345 VRE; assay: MIC against Enterococcus faecalis DU9345 VRE; assay type: cell-based; conditions: E. faecalis DU9345 VRE; no unit in table (Example 10 MICs in μg/ml)
# [15] = tested on: Enterococcus faecalis 11: DS6527 (VRE 208/11); assay: MIC against Enterococcus faecalis DS6527 (VRE 208/11); assay type: cell-based; conditions: E. faecalis DS6527 (VRE 208/11); no unit in table (Example 10 MICs in μg/ml)
smiles,measurement,setting,value
"COc1c(O)cc2oc3cc(O)c(CC=C(C)C)c(O)c3c(=O)c2c1CC=C(C)C [AM-000, alpha-mangostin, reference compound]",MIC99 MRSA,MRSA,1.56 µg/mL
same,MIC99 S. aureus,S. aureus,1.56 µg/mL
same,HC50,red blood cell [1],9 µg/mL
same,"Hemolytic concentration, HC50",red blood cell [1],6.5 µg/mL
COc1c(OCCCCBr)cc2oc3cc(OCCCCBr)c(CC=C(C)C)c(O)c3c(=O)c2c1CC=C(C)C [AM-005],Minimum inhibition concentration (MIC),[2],>50 µg/mL
same,HC50,red blood cell [3],>200 µg/mL
same,SYTOX green staining of bacteria (fluorescence microscopy),S. aureus DM4001,no significant staining
same,Membrane permeabilization (SYTOX green fluorescence emission),S. aureus DM4001,not able to trigger the membrane permeabilization
same,MIC99 MRSA,MRSA,>200 µg/mL
same,Cytoplasmic membrane depolarization,[4],does not depolarize the membrane
same,Activity against Gram-positive bacteria,Gram-positive bacteria,did not show activity
same,Minimum inhibition concentration (MIC),MRSA DM21455 [5],>50 µg/mL
same,Minimum inhibition concentration (MIC),"MRSA DM09808R; MRSA DM09808R, Source: Eye",>50 µg/mL
same,MIC99 S. aureus,S. aureus,>200 µg/mL
same,Minimum inhibition concentration (MIC),[6],>50 µg/mL
COc1c(OCCCCN2CCOCC2)cc2oc3cc(OCCCCN4CCOCC4)c(CC=C(C)C)c(O)c3c(=O)c2c1CC=C(C)C [AM-009],SYTOX green staining of bacteria (fluorescence microscopy),S. aureus DM4001,no significant staining
same,Membrane permeabilization (SYTOX green fluorescence emission),S. aureus DM4001,not able to trigger the membrane permeabilization
same,MIC99 MRSA,MRSA,>200 µg/mL
same,Minimum inhibition concentration (MIC),MRSA DM21455 [5],>25 µg/mL
same,MIC99 S. aureus,S. aureus,>200 µg/mL
same,MIC100,[7],8 µM
same,MIC100,[7]; value in brackets,5.54 µg/mL
same,Minimum inhibition concentration (MIC),[6],>25 µg/mL
same,HC50,red blood cell [1],>200 µg/mL
same,"Hemolytic concentration, HC50",red blood cell [1],>1000 µg/mL
"CC(C)=CCc1c(O)cc2oc3cc(O)c(O)c(CC=C(C)C)c3c(=O)c2c1O [AM-013, Gamma-mangostin, reference compound]",MIC100,[7],125 µM
same,MIC100,[7]; value in brackets,49.55 µg/mL
CCN(CC)CCCCCCCCOc1cc2oc3cc(OCCCCCCCCN(CC)CC)c(OC)c(CC=C(C)C)c3c(=O)c2c(O)c1CC=C(C)C [AM-043],Membrane permeabilization (SYTOX green fluorescence emission),S. aureus DM4001,weaker membrane permeabilization effect
CCN(CC)CCCCCCCCCCOc1cc2oc3cc(OCCCCCCCCCCN(CC)CC)c(OC)c(CC=C(C)C)c3c(=O)c2c(O)c1CC=C(C)C [AM-044],SYTOX green staining of bacteria (fluorescence microscopy),S. aureus DM4001,no significant staining
same,Membrane permeabilization (SYTOX green fluorescence emission),S. aureus DM4001,not able to trigger the membrane permeabilization
CCN(CC)CCCCCCCCCCCCOc1cc2oc3cc(OCCCCCCCCCCCCN(CC)CC)c(OC)c(CC=C(C)C)c3c(=O)c2c(O)c1CC=C(C)C [AM-045],SYTOX green staining of bacteria (fluorescence microscopy),S. aureus DM4001,no significant staining
same,Membrane permeabilization (SYTOX green fluorescence emission),S. aureus DM4001,not able to trigger the membrane permeabilization
COc1c(O)cc2oc3cc(OCC(=O)O)c(CC=C(C)C)c(O)c3c(=O)c2c1CC=C(C)C [AM-071],Minimum inhibition concentration (MIC),[8],25 µg/mL
same,MIC,[8],53.36
same,Minimum inhibition concentration (MIC),[9],6.25 µg/mL
same,MIC,[9],13.34 µM
same,Minimum inhibition concentration (MIC),MRSA DM21455 [5],25 µg/mL
same,MIC100,[7],250 µM
same,Minimum inhibition concentration (MIC),[6],12.5 µg/mL
same,MIC,[6],26.68 µM
same,"Hemolytic concentration, HC50",red blood cell [1],37.5 µg/mL
COc1c(OCC(=O)O)cc2oc3cc(O)c(CC=C(C)C)c(O)c3c(=O)c2c1CC=C(C)C [AM-072],Minimum inhibition concentration (MIC),[8],6.25 µg/mL
same,MIC,[8],13.34
same,Minimum inhibition concentration (MIC),[9],6.25 µg/mL
same,MIC,[9],13.34 µM
same,Minimum inhibition concentration (MIC),MRSA DM21455 [5],6.25 µg/mL
same,MIC100,[7],250 µM
same,Minimum inhibition concentration (MIC),[6],6.25 µg/mL
same,MIC,[6],13.34 µM
"CCCCCCCCCC(=O)N[C@@H](Cc1c[nH]c2ccccc12)C(=O)N[C@H](CC(N)=O)C(=O)N[C@@H](CC(=O)O)C(=O)N[C@@H]1C(=O)NCC(=O)N[C@@H](CCCN)C(=O)N[C@@H](CC(=O)O)C(=O)N[C@H](C)C(=O)N[C@@H](CC(=O)O)C(=O)NCC(=O)N[C@H](CO)C(=O)N[C@@H]([C@H](C)CC(=O)O)C(=O)N[C@@H](CC(=O)c2ccccc2N)C(=O)O[C@@H]1C [Daptomycin, reference compound]",MIC,"MRSA DM21455 [5]; MRSA-21455 (Eye), Example 10, Mueller Hinton broth dilution, read-out: MIC",0.78 µg/mL
same,MIC,"MRSA DM09808R; MRSA-09808R (Eye), Example 10, Mueller Hinton broth dilution, read-out: MIC",0.195 µg/mL
same,MIC,"MRSA DR42412; MRSA-42412 (Sputum), Example 10, Mueller Hinton broth dilution, read-out: MIC",0.195 µg/mL
same,MIC,"[10]; MRSA-700699, Example 10, Mueller Hinton broth dilution, read-out: MIC",0.78 µg/mL
same,MIC,"MRSA DM21595; MRSA-21595 (Wound), Example 10, Mueller Hinton broth dilution, read-out: MIC",0.395 µg/mL
"CN[C@H](CC(C)C)C(=O)N[C@H]1C(=O)N[C@@H](CC(N)=O)C(=O)N[C@H]2C(=O)N[C@H]3C(=O)N[C@H](C(=O)N[C@H](C(=O)O)c4cc(O)cc(O)c4-c4cc3ccc4O)[C@H](O)c3ccc(c(Cl)c3)Oc3cc2cc(c3O[C@@H]2O[C@H](CO)[C@@H](O)[C@H](O)[C@H]2O[C@H]2C[C@](C)(N)[C@H](O)[C@H](C)O2)Oc2ccc(cc2Cl)[C@H]1O [Vancomycin, reference compound]",Minimum inhibitory concentration,[11],50
same,Development of drug resistance,MRSA DM21455 [12],develops drug resistance more quickly
same,MIC,MRSA DM21455 [5]; MRSA,0.78 µg/mL
same,MIC,MRSA DM09808R; MRSA,0.395 µg/mL
same,Minimum inhibitory concentration,[13],1.56
same,MIC,MRSA DR42412; MRSA,0.78 µg/mL
same,Minimum inhibitory concentration,[14],1.56
same,Minimum inhibitory concentration,"[10]; S. aureus ATCC 700699 (VISA), no unit in table (Example 10 MICs in μg/ml)",6.25
same,MIC,[10],6.25 µg/mL
same,MIC,MRSA DM21595; MRSA,0.78 µg/mL
same,Minimum inhibitory concentration,[15],Above 100
